Measured values as given in US20240390335A1, “PHARMACEUTICAL COMPOSITION CONTAINING BETA-LACTAM COMPOUND AND USE THEREOF” (priority 2021, published 2024).
Where two headings read alike, the source gives them in different places.

What was measured:
Assay type in all cases: cell-based
Pseudomonas aeruginosa [1] = assay: Combined in vitro use, checkerboard dilution method
Protocol: (§1) Mueller-Hinton broth (MH broth) medium, Trypticase Soy Broth (TSB Broth) medium, purchased from BD Difco, Cockeysville, MD, USA; • 96-well plate: Corning Costar, Cambridge, MA, USA; • Test method: the checkerboard dilution method was used for determination.
(§2) (1) Preparation of the test samples: 4 mg of each sample was taken and was prepared into a test solution at 2,048 μg/mL with MH broth, and the test solution was diluted two-fold in a 96-well plate to prepare solutions of a series of gradient concentrations.
(§3) (2) Preparation of a bacteria solution: The test strains were amplified by Trypticase Soy Broth (TSB Broth) according to the CLSI/NCCLS standard.
(§4) (3) Addition of the samples: 10 μL of the bacteria solution with a concentration of 6×10^5 CFU/mL was pipetted into each well of the 96-well plate. Each well contained the antibacterial drugs (the compound of formula (I-1) and the compound of formula (I-2)) diluted two-fold with broth and the aforementioned lactamase inhibitor or efflux pump inhibitor. […] The samples were mixed thoroughly. Three parallel experiments were set up for each concentration and the results were averaged. To the negative control group, 10 μL of the bacterial solution and 90 μL MH broth were added.
(§5) (4) Incubation: the 96-well plate was placed in a 37° C. constant-temperature incubator for 18 hours, and the growth of the strains was observed.
(§6) (5) Calculation: The in vitro effect of each drug-inhibitor combination was analyzed by calculating the FICI value: FICI=(MIC of drug A in the combination/MIC of drug A alone)+ (MIC of drug B in the combination/MIC of drug B alone).
(§7) In order to ensure the reliability of the data, three repeated tests were conducted on different dates and the results were averaged.

Klebsiella pneumoniae [2] = assay: as above
Protocol: as §1, §2, §3, §4, §5, §6, §7

Enterobacter cloacae [3] = assay: as above; conditions: compound of formula (I-1) combined with avibactam; Enterobacter cloacae ATCC 2468
Protocol: as §1, §2, §3, §4, §5, §6, §7

Escherichia coli [4] = assay: as above
Protocol: as §1, §2, §3, §4, §5, §6, §7

Acinetobacter baumannii [5] = assay: as above
Protocol: as §1, §2, §3, §4, §5, §6, §7

Pseudomonas aeruginosa [6] = assay: MIC assay of individual compounds (microdilution, CLSI/NCCLS); conditions: individual compound, read-out: MIC
Protocol: (§8) Mueller-Hinton broth (MH broth) medium, Trypticase Soy Broth (TSB Broth) medium, purchased from BD Difco, Cockeysville, MD, USA; • 96-well plate: Corning Costar, Cambridge, MA, USA; • Test method: the antibacterial activities were tested by the microdilution method according to the CLSI/NCCLS standard.
(§9) (1) Preparation of the test samples: 4 mg of each sample was taken, and was prepared into a test solution at 1,024 μg/mL with MH broth, and the test solution was diluted two-fold in a 96-well plate to prepare solutions of a series of gradient concentrations, the volume in each well being 90 μL.
as §3
(§10) (3) Addition of the samples: a bacteria solution with a concentration of 6×10^5 cfu/mL was prepared, and 10 μL of the bacteria solution was pipetted into each well of the 96-well plate. Three parallel experiments were set up for each concentration and the results were averaged. To the negative control group, 10 μL of the bacterial solution and 90 μL MH broth were added.
(§11) (4) Incubation: the 96-well plate was placed in a 37° C. constant-temperature incubator for 18 hours, and the growth of the strains was observed. The drug concentration in the well with no microbial growth was recorded as the MIC.

Klebsiella pneumoniae [7] = assay: as above; conditions: Klebsiella pneumoniae, read-out: MIC
Protocol: as §8, §9, §3, §10, §11

Enterobacter cloacae [8] = assay: as above; conditions: individual compound, read-out: MIC
Protocol: as §8, §9, §3, §10, §11

Escherichia coli [9] = assay: as above; conditions: individual compound, read-out: MIC
Protocol: as §8, §9, §3, §10, §11

Acinetobacter baumannii [10] = assay: as above; conditions: individual compound, read-out: MIC
Protocol: as §8, §9, §3, §10, §11

[11] = tested on: drug-resistant Enterobacteriaceae strains; assay: Checkerboard combination, summary over Enterobacteriaceae strains; conditions: combined with avibactam; all of the 12 drug-resistant Enterobacteriaceae strains tested
Protocol: as §1, §2, §3
as §4, with “To the negative control group, 10 μL of the bacterial solution and 90 μL MH broth were added.” left out
(5) Calculation: The in vitro effect of each drug-inhibitor combination was analyzed by calculating the FICI value: FICI=(MIC of drug A in the combination/MIC of drug A alone)+ (MIC of drug B in the combination/MIC of drug B alone). […]

## CC1(C)[C@H](NC(=O)/C(=N\OC2(C(=O)O)CC2)c2csc(N)n2)C(=O)N1OS(=O)(=O)O [Compound of formula (I-1)]
Pseudomonas aeruginosa [1]; combined with PAβN, Pseudomonas aeruginosa ATCC27853 and PAO1 (CCPM(A)-P-09000032)
  reduction of MIC values on combination: eight-fold
Pseudomonas aeruginosa [1]; combined with PAβN, Pseudomonas aeruginosa CCPM(A)-P-091626 (CRPA)
  reduction of MIC value on combination: four-fold
Pseudomonas aeruginosa [1]; compound of formula (I-1) combined with PAβN, Pseudomonas aeruginosa ATCC27853
  MIC in combination: 2 µg/mL
Pseudomonas aeruginosa [1]; compound of formula (I-1) combined with PAβN, Pseudomonas aeruginosa CCPM(A)-P-091626(CRPA)
  MIC in combination: 8 µg/mL
Pseudomonas aeruginosa [1]; compound of formula (I-1) combined with PAβN, Pseudomonas aeruginosa PAO1(CCPM(A)-P-09000032)
  MIC in combination: 2 µg/mL
Pseudomonas aeruginosa [1]; compound of formula (I-1) combined with berberine, Pseudomonas aeruginosa ATCC27853
  MIC in combination: 16 µg/mL
Pseudomonas aeruginosa [1]; compound of formula (I-1) combined with berberine, Pseudomonas aeruginosa CCPM(A)-P-091626(CRPA)
  MIC in combination: 32 µg/mL
Pseudomonas aeruginosa [1]; compound of formula (I-1) combined with berberine, Pseudomonas aeruginosa PAO1(CCPM(A)-P-09000032)
  MIC in combination: 16 µg/mL
Pseudomonas aeruginosa [1]; compound of formula (I-1) combined with conessine, Pseudomonas aeruginosa PAO1(CCPM(A)-P-09000032)
  MIC in combination: 16 µg/mL
Klebsiella pneumoniae [2]; compound of formula (I-1) combined with avibactam, Klebsiella pneumoniae ATCC 2146
  MIC in combination: 0.5 µg/mL
Klebsiella pneumoniae [2]; compound of formula (I-1) combined with avibactam, Klebsiella pneumoniae ATCC 700603
  MIC in combination: 0.5 µg/mL
Klebsiella pneumoniae [2]; compound of formula (I-1) combined with avibactam, Klebsiella pneumoniae CCPM(A)-0814R18
  MIC in combination: 0.25 µg/mL
Klebsiella pneumoniae [2]; compound of formula (I-1) combined with avibactam, Klebsiella pneumoniae CCPM(A)-0814R33
  MIC in combination: 0.25 µg/mL
Klebsiella pneumoniae [2]; compound of formula (I-1) combined with avibactam, Klebsiella pneumoniae CCPM(A)-0817R61
  MIC in combination: 1 µg/mL
Klebsiella pneumoniae [2]; compound of formula (I-1) combined with avibactam, Klebsiella pneumoniae CCPM(A)-081705
  MIC in combination: 0.5 µg/mL
Klebsiella pneumoniae [2]; compound of formula (I-1) combined with avibactam, Klebsiella pneumoniae CCPM(A)-081715
  MIC in combination: 0.5 µg/mL
Klebsiella pneumoniae [2]; compound of formula (I-1) combined with avibactam, Klebsiella pneumoniae CCPM(A)-081716
  MIC in combination: 0.25 µg/mL
Klebsiella pneumoniae [2]; compound of formula (I-1) combined with avibactam, Klebsiella pneumoniae CCPM(A)-081729
  MIC in combination: 0.5 µg/mL
Klebsiella pneumoniae [2]; compound of formula (I-1) combined with relebactam, Klebsiella pneumoniae ATCC 2146
  MIC in combination: 0.5 µg/mL
Klebsiella pneumoniae [2]; compound of formula (I-1) combined with relebactam, Klebsiella pneumoniae ATCC 700603
  MIC in combination: 0.125 µg/mL
Klebsiella pneumoniae [2]; compound of formula (I-1) combined with vaborbactam, Klebsiella pneumoniae ATCC 700603
  MIC in combination: 0.5 µg/mL
Klebsiella pneumoniae [2]; compound of formula (I-1) combined with vaborbactam, Klebsiella pneumoniae CCPM(A)-0814R33
  MIC in combination: 0.5 µg/mL
Enterobacter cloacae [3]
  MIC in combination: 1 µg/mL
Escherichia coli [4]; compound of formula (I-1) combined with avibactam, Escherichia coli ATCC 2469
  MIC in combination: 0.125 µg/mL
Escherichia coli [4]; compound of formula (I-1) combined with avibactam, Escherichia coli CCPM(A)-P-071301
  MIC in combination: 0.25 µg/mL
Escherichia coli [4]; compound of formula (I-1) combined with vaborbactam, Escherichia coli CCPM(A)-P-071301
  MIC in combination: 0.5 µg/mL
Acinetobacter baumannii [5]; combined with berberine, Acinetobacter baumannii ATCC19606 and ATCC17978
  reduction of MIC values on combination: four-fold
Acinetobacter baumannii [5]; combined with conessine, Acinetobacter baumannii ATCC19606
  reduction of MIC values on combination: four-fold
Acinetobacter baumannii [5]; compound of formula (I-1) combined with PAβN, Acinetobacter baumannii ATCC 17978
  MIC in combination: 16 µg/mL
Acinetobacter baumannii [5]; compound of formula (I-1) combined with PAβN, Acinetobacter baumannii ATCC 19606
  MIC in combination: 16 µg/mL
Acinetobacter baumannii [5]; compound of formula (I-1) combined with PAβN, Acinetobacter baumannii CCPM(A)-P-101633(CRAB)
  MIC in combination: 16 µg/mL
Acinetobacter baumannii [5]; compound of formula (I-1) combined with berberine, Acinetobacter baumannii ATCC 17978
  MIC in combination: 4 µg/mL
Acinetobacter baumannii [5]; compound of formula (I-1) combined with berberine, Acinetobacter baumannii ATCC 19606
  MIC in combination: 4 µg/mL
Acinetobacter baumannii [5]; compound of formula (I-1) combined with berberine, Acinetobacter baumannii CCPM(A)-P-101633(CRAB)
  MIC in combination: 16 µg/mL
Acinetobacter baumannii [5]; compound of formula (I-1) combined with conessine, Acinetobacter baumannii ATCC 19606
  MIC in combination: 4 µg/mL
Pseudomonas aeruginosa [6]; Pseudomonas aeruginosa ATCC27853
  MIC: 16 µg/mL
Pseudomonas aeruginosa [6]; Pseudomonas aeruginosa CCPM(A)-P-091626(CRPA)
  MIC: 32 µg/mL
Pseudomonas aeruginosa [6]; Pseudomonas aeruginosa PAO1(CCPM(A)-P-09000032)
  MIC: 16 µg/mL
Klebsiella pneumoniae [7]; ATCC2146, individual compound, Klebsiella pneumoniae ATCC 2146
  MIC: 2 µg/mL
Klebsiella pneumoniae [7]; ATCC700603, individual compound, Klebsiella pneumoniae ATCC 700603
  MIC: 4 µg/mL
Klebsiella pneumoniae [7]; individual compound, Klebsiella pneumoniae CCPM(A)-0814R18
  MIC: 2 µg/mL
Klebsiella pneumoniae [7]; individual compound, Klebsiella pneumoniae CCPM(A)-0814R33
  MIC: 2 µg/mL
Klebsiella pneumoniae [7]; individual compound, Klebsiella pneumoniae CCPM(A)-0817R61
  MIC: 64 µg/mL
Klebsiella pneumoniae [7]; individual compound, Klebsiella pneumoniae CCPM(A)-081301
  MIC: 2 µg/mL
Klebsiella pneumoniae [7]; individual compound, Klebsiella pneumoniae CCPM(A)-081705
  MIC: 2 µg/mL
Klebsiella pneumoniae [7]; individual compound, Klebsiella pneumoniae CCPM(A)-081715
  MIC: 2 µg/mL
Klebsiella pneumoniae [7]; individual compound, Klebsiella pneumoniae CCPM(A)-081716
  MIC: 128 µg/mL
Klebsiella pneumoniae [7]; individual compound, Klebsiella pneumoniae CCPM(A)-081729
  MIC: 2 µg/mL
Enterobacter cloacae [8]; ATCC2468, Enterobacter cloacae ATCC 2468
  MIC: 2 µg/mL
Enterobacter cloacae [8]; Enterobacter cloacae CCPM(A)-P-111719
  MIC: 1 µg/mL
Escherichia coli [9]; ATCC2469, Escherichia coli ATCC 2469
  MIC: 1 µg/mL
Escherichia coli [9]; Escherichia coli CCPM(A)-P-071301
  MIC: 2 µg/mL
Acinetobacter baumannii [10]; ATCC17978, Acinetobacter baumannii ATCC 17978
  MIC: 16 µg/mL
Acinetobacter baumannii [10]; ATCC19606, Acinetobacter baumannii ATCC 19606
  MIC: 16 µg/mL
Acinetobacter baumannii [10]; Acinetobacter baumannii CCPM(A)-P-101633(CRAB)
  MIC: 32 µg/mL
[11]
  change of MIC values on combination: significantly reduced
